Reference: patent US20250066328A1, “PARP7 INHIBITORS” (Gilead Sciences, Inc., priority 2023, published 2025)

System: STAT1 (phosphorylated at Tyr701) in NCI-H1373 cells
Test: Phospho-STAT1 (Tyr701) LANCE Ultra TR-FRET detection assay in NCI-H1373 cells
Format: cell-based
Settings: Homo sapiens, NCI-H1373, 48 h, 48 hours incubation, induction of pSTAT1, normalized to 10 uM positive control and DMSO, 4-parameter fit, read-out: NH1373 pSTAT1 EC50
Method: Phospho-STAT1 (Tyr701 LANCE Ultra TR-FRET Detection Assay
LANCE Ultra phospho-STAT1 (Tyr701) kits are designed for the detection of phosphorylated STAT1 in cell lysates using a simple, homogeneous LANCE Ultra sandwich assay (Cat. #TRF4028M). This assay is intended for assessing compound induction of endogenous levels of cellular STAT1 (phosphorylated at Tyr701) in NCI-H1373 cells. The NCI-H1373 cells are cultured in RPMI 1640 media containing 10% heat inactivated FBS, GlutaMAX, 1% Penicillin-Streptomycin. An Echo acoustic liquid handler is used to transfer 60 nanoliters of compound dilutions using the Echo Qualified, 384-well polypropylene microplate clear flat bottom source plates into a Greiner (#781080) cell culture microplate. NCI-H1373 cells are seeded into these compound-spotted culture plates at 30,000 cells/well in a 60 uL volume in growth media. The plates are incubated in a 5% CO2 humidified incubator at 37° C. for 48 hours. […] Briefly, […] of supplemented lysis buffer is added to each well and allowed to shake for 1 hour at 400 rpm. Next, 5 ul of remixed antibody solutions (vol/vol) prepared in detection buffer are added to each well and allowed to incubate at room temperature overnight. After spinning the plate down at 300 rpm for 1 min, the plate is read on an EnVision plate reader set up for Eu^3+ Cryptate and fluorescence emission is measured at two different wavelengths (665 nm and 620 nm). The HTRF ratio is then calculated ([…]) for each well to determine the amount of pSTAT1 in the cell lysate, and the data is then normalized to 10 uM (S)-5-((1-(3-oxo-3-(4-(5-(trifluoromethyl)pyrimidin-2-yl)piperazin-1-yl)propoxy)propan-2-yl)amino)-4-(trifluoromethyl)pyridazin-3(2H)-one positive and DMSO negative controls. The values were then plotted as a function of compound concentration and a 4-parameter fit was applied to derive the EC50 values.

SMILES	EC50
C[C@@H](C[C@H](F)Cn1ccc2cc(-c3ncc(C(F)(F)F)cn3)c(F)cc2c1=O)Nc1cn[nH]c(=O)c1C(F)(F)F (single isomer, unassigned) [Example 3]	11.7 nM
C[C@@H](C[C@@H](F)Cn1ccc2cc(-c3ncc(C(F)F)cn3)c(F)cc2c1=O)Nc1cn[nH]c(=O)c1C(F)(F)F (single isomer, unassigned) [Example 4]	1.08 nM
C[C@@H](C[C@H](F)Cn1ccc2cc(-c3ncc(C(F)F)cn3)c(F)cc2c1=O)Nc1cn[nH]c(=O)c1C(F)(F)F (single isomer, unassigned) [Example 5]	47.6 nM
COc1cnc(-c2cc3ccn(C[C@H](F)C[C@H](C)Nc4cn[nH]c(=O)c4C(F)(F)F)c(=O)c3cc2F)nc1 (single isomer, unassigned) [Example 6]	0.809 nM
COc1cnc(-c2cc3ccn(C[C@@H](F)C[C@H](C)Nc4cn[nH]c(=O)c4C(F)(F)F)c(=O)c3cc2F)nc1 (single isomer, unassigned) [Example 7]	152 nM
C[C@@H](C[C@@H](F)Cn1ccc2cc(-c3ncc(C(C)(C)O)cn3)c(F)cc2c1=O)Nc1cn[nH]c(=O)c1C(F)(F)F (single isomer, unassigned) [Example 8]	3.55 nM
C[C@@H](C[C@H](F)Cn1ccc2cc(-c3ncc(C(C)(C)O)cn3)c(F)cc2c1=O)Nc1cn[nH]c(=O)c1C(F)(F)F (single isomer, unassigned) [Example 9]	238 nM
C[C@@H](C[C@@H](F)Cn1ccc2cc(-c3ncc(C(F)F)c(N)n3)c(F)cc2c1=O)Oc1cn[nH]c(=O)c1C(F)(F)F (single isomer, unassigned) [Example 14]	8.34 nM
C[C@@H](C[C@H](F)Cn1ccc2cc(-c3ncc(C(F)F)c(N)n3)c(F)cc2c1=O)Oc1cn[nH]c(=O)c1C(F)(F)F (single isomer, unassigned) [Example 15]	0.786 nM
C[C@@H](C[C@@H](O)Cn1ccc2cc(-c3ncc(C(F)(F)F)cn3)c(F)cc2c1=O)Oc1cn[nH]c(=O)c1C(F)(F)F (single isomer, unassigned) [Example 17]	23.3 nM
C[C@@H](C[C@@H](O)Cn1ccc2cc(-c3ncc(C(F)F)cn3)c(F)cc2c1=O)Oc1cn[nH]c(=O)c1C(F)(F)F (single isomer, unassigned) [Example 19]	1.28 nM
C[C@@H](C[C@H](O)Cn1ccc2cc(-c3ncc(C(F)F)cn3)c(F)cc2c1=O)Oc1cn[nH]c(=O)c1C(F)(F)F (single isomer, unassigned) [Example 20]	33 nM
C[C@@H](C[C@@H](O)Cn1ccc2cc(-c3nc4ccccn4n3)c(F)cc2c1=O)Nc1cn[nH]c(=O)c1C(F)(F)F (single isomer, unassigned) [Example 22]	2.7 nM
C[C@@H](C[C@H](O)Cn1ccc2cc(-c3nc4ccccn4n3)c(F)cc2c1=O)Nc1cn[nH]c(=O)c1C(F)(F)F (single isomer, unassigned) [Example 23]	7.18 nM
CC(C)(O)c1cnc(-c2cc3ccn(CCC[C@@H](COC(F)F)Oc4cn[nH]c(=O)c4C(F)(F)F)c(=O)c3cc2F)nc1 (single isomer, unassigned) [Example 34]	10000 nM
CC(C)(O)c1cnc(-c2cc3ccn(CCC[C@H](COC(F)F)Oc4cn[nH]c(=O)c4C(F)(F)F)c(=O)c3cc2F)nc1 (single isomer, unassigned) [Example 35]	20.5 nM
C[C@@H](C[C@@H](F)Cn1ccc2cc(-c3ncc(Cl)cn3)c(F)c(F)c2c1=O)Oc1cn[nH]c(=O)c1C(F)(F)F (single isomer, unassigned) [Example 43]	0.62 nM
C[C@@H](C[C@@H](F)Cn1ccc2cc(-c3ncc(C(C)(C)O)cn3)c(F)cc2c1=O)Oc1cn[nH]c(=O)c1C(F)(F)F (single isomer, unassigned) [Example 51]	3.28 nM
C[C@@H](C[C@@H](F)Cn1cc(F)c2cc(-c3ncc(C(C)(C)O)cn3)c(F)cc2c1=O)Oc1cn[nH]c(=O)c1C(F)(F)F (single isomer, unassigned) [Example 56]	1.51 nM
COc1cnc(-c2cc3ncn(C[C@H](F)C[C@H](C)Oc4cn[nH]c(=O)c4C(F)(F)F)c(=O)c3cc2F)nc1 (single isomer, unassigned) [Example 57]	38.8 nM

SMILES	EC50
C[C@@H](C[C@H](F)Cn1ccc2cc(-c3ncc(C(C)(C)O)cn3)c(F)cc2c1=O)Oc1cn[nH]c(=O)c1C(F)(F)F (single isomer, unassigned) [Example 61]	158 nM
O=c1[nH]ncc(O[C@H](CCCn2ccc3cc(-c4ncc(C(F)(F)F)cn4)c(F)cc3c2=O)COC(F)F)c1C(F)(F)F (single isomer, unassigned) [Example 119]	16.1 nM
C[C@@H](CC(F)Cn1ccc2cc(-c3ncc(C(F)(F)F)cn3)c(F)cc2c1=O)Nc1cn[nH]c(=O)c1C(F)(F)F (stereo partly drawn) [Example 1, 7-fluoro-2-[(4S)-2-fluoro-4-[[6-oxo-5-(trifluoromethyl)-1H-pyridazin-4-yl]amino]pentyl]-6-[5-(trifluoromethyl)pyrimidin-2-yl]isoquinolin-1-one]	1.88 nM
C[C@@H](C[C@@H](F)Cn1ccc2cc(-c3ncc(C(F)(F)F)cn3)c(F)cc2c1=O)Nc1cn[nH]c(=O)c1C(F)(F)F [Example 2]	0.947 nM
COC(C[C@H](C)Nc1cn[nH]c(=O)c1C(F)(F)F)Cn1ccc2cc(-c3ncc(C(F)(F)F)cn3)c(F)cc2c1=O (stereo partly drawn) [Example 10, 7-fluoro-2-((4S)-2-methoxy-4-((6-oxo-5-(trifluoromethyl)-1,6-dihydropyridazin-4-yl)amino)pentyl)-6-(5-(trifluoromethyl)pyrimidin-2-yl)isoquinolin-1(2H)-one]	30.8 nM
C[C@@H](CC(F)Cn1ccc2cc(-c3ncc(C(F)(F)F)cn3)c(F)cc2c1=O)Oc1cn[nH]c(=O)c1C(F)(F)F (stereo partly drawn) [Example 11, 7-fluoro-2-((4S)-2-fluoro-4-((6-oxo-5-(trifluoromethyl)-1,6-dihydropyridazin-4-yl)oxy)pentyl)-6-(5-(trifluoromethyl)pyrimidin-2-yl)isoquinolin-1(2H)-one]	3.61 nM
C[C@@H](C[C@@H](F)Cn1ccc2cc(-c3ncc(C(F)(F)F)cn3)c(F)cc2c1=O)Oc1cn[nH]c(=O)c1C(F)(F)F [Example 12]	45.1 nM
C[C@@H](C[C@H](F)Cn1ccc2cc(-c3ncc(C(F)(F)F)cn3)c(F)cc2c1=O)Oc1cn[nH]c(=O)c1C(F)(F)F [Example 13]	1.32 nM
C[C@@H](CC(O)Cn1ccc2cc(-c3ncc(C(F)(F)F)cn3)c(F)cc2c1=O)Oc1cn[nH]c(=O)c1C(F)(F)F (stereo partly drawn) [Example 16]	1.12 nM
C[C@@H](C[C@H](O)Cn1ccc2cc(-c3ncc(C(F)(F)F)cn3)c(F)cc2c1=O)Oc1cn[nH]c(=O)c1C(F)(F)F [Example 18]	1.81 nM
C[C@@H](CC(O)Cn1ccc2cc(-c3nc4ccccn4n3)c(F)cc2c1=O)Nc1cn[nH]c(=O)c1C(F)(F)F (stereo partly drawn) [Example 21, 6-([1,2,4]triazolo[1,5-a]pyridin-2-yl)-7-fluoro-2-((4S)-2-hydroxy-4-((6-oxo-5-(trifluoromethyl)-1,6-dihydropyridazin-4-yl)amino)pentyl)isoquinolin-1(2H)-one]	13.3 nM
C[C@@H](C[C@@H](F)Cn1cc(F)c2cc(-c3ncc(C(F)F)c(N)n3)c(F)cc2c1=O)Nc1cn[nH]c(=O)c1C(F)(F)F [Example 24, 6-(4-amino-5-(difluoromethyl)pyrimidin-2-yl)-4,7-difluoro-2-((2R,4S)-2-fluoro-4-((6-oxo-5-(trifluoromethyl)-1,6-dihydropyridazin-4-yl)amino)pentyl)isoquinolin-1(2H)-one]	2.39 nM
COc1cnc(-c2cc3c(F)cn(C[C@H](F)C[C@H](C)Nc4cn[nH]c(=O)c4C(F)(F)F)c(=O)c3cc2F)nc1 [Example 25]	1.01 nM
C[C@@H](C[C@@H](F)Cn1cc(F)c2cc(-c3ncc(C(C)(C)O)cn3)c(F)cc2c1=O)Nc1cn[nH]c(=O)c1C(F)(F)F [Example 26]	3.84 nM
[2H]C([2H])([2H])Oc1cnc(-c2cc3ccn(C[C@H](F)C[C@H](C)Nc4cn[nH]c(=O)c4C(F)(F)F)c(=O)c3cc2F)nc1 [Example 27]	1.05 nM
C[C@@H](C[C@@H](F)Cn1ccc2cc(-c3ncc(C(C)(C)O)cn3)c(F)c(F)c2c1=O)Nc1cn[nH]c(=O)c1C(F)(F)F [Example 28]	6.51 nM
C[C@@H](C[C@@H](F)Cn1cc(F)c2cc(-c3ncc(C(F)F)cn3)c(F)cc2c1=O)Nc1cn[nH]c(=O)c1C(F)(F)F [Example 29]	1.86 nM
C[C@@H](C[C@@H](F)Cn1cc(F)c2cc(-c3ncc(C(F)(F)F)cn3)c(F)cc2c1=O)Nc1cn[nH]c(=O)c1C(F)(F)F [Example 30]	1.54 nM
C[C@@H](C[C@@H](F)Cn1ccc2cc(-c3ncc(C(F)(F)F)cn3)c(F)c(F)c2c1=O)Nc1cn[nH]c(=O)c1C(F)(F)F [Example 32]	0.912 nM
